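Test compounds were applied to cells in 96-well plates for 48 hours at 5 doses. TGI: concentration producing complete growth inhibition.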
Assays:
Assay in all cases: growth of human tumour cells (NCI), 48 h
[1] = test system: SF-295 CNS
[2] = test system: MDA-N
[3] = test system: DU-145 prostate
[4] = test system: RPMI-8226 leukemia
[5] = test system: SNB-75 CNS
[6] = test system: HOP-62 NSCLC
[7] = test system: OVCAR-4 ovarian
[8] = test system: HCT-116 colon
[9] = test system: HT29 colon
[10] = test system: SK-OV-3 ovarian
[11] = test system: MDA-MB-435
[12] = test system: CCRF-CEM leukemia
[13] = test system: SF-539 CNS
[14] = test system: HL-60(TB) leukemia
[15] = test system: MCF7 breast
[16] = test system: SK-MEL-5 melanoma
[17] = test system: ACHN renal
[18] = test system: NCI-H23 lung
[19] = test system: EKVX NSCLC
[20] = test system: HS 578T breast
[21] = test system: COLO 205 colon
[22] = test system: NCI-H460 lung
[23] = test system: A549 NSCLC
[24] = test system: A498 renal
[25] = test system: M14 melanoma
[26] = test system: OVCAR-8 ovarian
[27] = test system: SW-620 colon
[28] = test system: LOX IMVI melanoma
[29] = test system: 786-0 renal
[30] = test system: NCI-H226 lung
[31] = test system: OVCAR-3 ovarian
[32] = test system: NCI/ADR-RES ovarian
[33] = test system: K-562 leukemia
[34] = test system: SNB-19 CNS
[35] = test system: TK-10 renal
[36] = test system: MDA-MB-231 breast
[37] = test system: CAKI-1 renal
[38] = test system: UO-31 renal
[39] = test system: T-47D breast
[40] = test system: SK-MEL-2 melanoma
[41] = test system: OVCAR-5 ovarian
[42] = test system: SN12C renal
[43] = test system: MOLT-4 leukemia
[44] = test system: IGROV1 ovarian
[45] = test system: RXF 393 renal
[46] = test system: HOP-92 NSCLC
[47] = test system: NCI-H522 lung
[48] = test system: U251 CNS
[49] = test system: PC-3 prostate
[50] = test system: KM12 colon
[51] = test system: BT-549 breast
[52] = test system: UACC-257 melanoma
[53] = test system: UACC-62 melanoma
[54] = test system: HCT-15 colon
[55] = test system: SK-MEL-28 melanoma
[56] = test system: SF-268 CNS
[57] = test system: MALME-3M melanoma
[58] = test system: HCC-2998 colon

`c1ccc2c(c1)SC1Sc3ccccc3[S+]21` (stereo not given) gave a TGI [1] greater than 100 µM, a TGI [2] of 53.6 µM and a TGI [3] greater than 76.3 µM. It also gave a TGI [4] of 49.9 µM, a TGI [5] greater than 100 µM and a TGI [6] greater than 100 µM. The TGI [7] was greater than 100 µM, the TGI [8] was greater than 57 µM and the TGI [9] was greater than 85.3 µM. The TGI [10] was greater than 100 µM, the TGI [11] was 60.9 µM and the TGI [12] was 49.6 µM. For the same compound, the TGI [13] was 54.9 µM, the TGI [14] was 60.9 µM and the TGI [15] was greater than 69.2 µM. The TGI [16] was 22.7 µM, the TGI [17] was 20.4 µM and the TGI [18] was 37.4 µM. The TGI [19] was 52.5 µM, the TGI [20] was greater than 100 µM and the TGI [21] was 30.1 µM. It also gave a TGI [22] greater than 70.7 µM, a TGI [23] greater than 100 µM and a TGI [24] greater than 100 µM. It also gave a TGI [25] of 87.7 µM, a TGI [26] greater than 78.3 µM and a TGI [27] greater than 76.7 µM. For the same compound, the TGI [28] was 45.6 µM, the TGI [29] was greater than 62.4 µM and the TGI [30] was 96.9 µM. For the same compound, the TGI [31] was 46 µM, the TGI [32] was 51 µM and the TGI [33] was greater than 23.3 µM. It also gave a TGI [34] greater than 100 µM, a TGI [35] of 55.4 µM and a TGI [36] of 80.3 µM. The TGI [37] was 44.8 µM, the TGI [38] was 50.9 µM and the TGI [39] was greater than 100 µM. The TGI [40] was greater than 100 µM, the TGI [41] was greater than 100 µM and the TGI [42] was 33.6 µM. For the same compound, the TGI [43] was 47.8 µM, the TGI [44] was 50.5 µM and the TGI [45] was greater than 73.1 µM. The TGI [46] was 69.9 µM, the TGI [47] was 26.1 µM and the TGI [48] was 45.5 µM. It also gave a TGI [49] greater than 100 µM, a TGI [50] of 31.1 µM and a TGI [51] of 37.2 µM. For the same compound, the TGI [52] was 33.8 µM, the TGI [53] was 37.4 µM and the TGI [54] was greater than 79.5 µM. For the same compound, the TGI [55] was 41.4 µM, the TGI [56] was 39.8 µM and the TGI [57] was 15.5 µM.
In the case of `CC1=C(C#N)S(=O)(=O)c2c(oc(C)c2C)N1`, the TGI [1] is reported as greater than 100 µM, the TGI [2] is reported as greater than 100 µM and the TGI [3] is reported as greater than 100 µM. For the same compound, the TGI [4] was greater than 100 µM, the TGI [5] was greater than 100 µM and the TGI [6] was greater than 100 µM. For the same compound, the TGI [7] was greater than 100 µM, the TGI [8] was greater than 100 µM and the TGI [9] was greater than 100 µM. The TGI [10] was greater than 100 µM, the TGI [11] was greater than 100 µM and the TGI [13] was greater than 100 µM. It also gave a TGI [15] greater than 100 µM, a TGI [16] greater than 100 µM and a TGI [17] greater than 100 µM. It also gave a TGI [18] greater than 100 µM, a TGI [19] greater than 100 µM and a TGI [20] greater than 100 µM. For the same compound, the TGI [58] was greater than 100 µM, the TGI [22] was greater than 100 µM and the TGI [23] was greater than 100 µM. The TGI [24] was greater than 100 µM, the TGI [25] was greater than 100 µM and the TGI [26] was greater than 100 µM. It also gave a TGI [27] greater than 100 µM, a TGI [28] greater than 100 µM and a TGI [29] greater than 100 µM. For the same compound, the TGI [30] was greater than 100 µM, the TGI [31] was greater than 100 µM and the TGI [32] was greater than 100 µM. The TGI [33] was greater than 100 µM, the TGI [34] was greater than 100 µM and the TGI [35] was greater than 100 µM. The TGI [36] was greater than 100 µM, the TGI [37] was greater than 100 µM and the TGI [38] was greater than 100 µM. The TGI [39] was greater than 100 µM, the TGI [40] was greater than 100 µM and the TGI [41] was greater than 100 µM. It also gave a TGI [42] greater than 100 µM, a TGI [43] greater than 100 µM and a TGI [46] greater than 100 µM. For the same compound, the TGI [47] was greater than 100 µM, the TGI [48] was greater than 100 µM and the TGI [49] was greater than 100 µM. For the same compound, the TGI [50] was greater than 100 µM, the TGI [51] was greater than 100 µM and the TGI [52] was greater than 100 µM. For the same compound, the TGI [53] was greater than 100 µM, the TGI [54] was greater than 100 µM and the TGI [55] was greater than 100 µM. It also gave a TGI [56] greater than 100 µM and a TGI [57] greater than 100 µM.
